Data on seven molecules can be found in patent US11084829B2, “Ubiquitin-specific-processing protease 7 (USP7) modulators and uses thereof” (RAPT THERAPEUTICS, INC., priority 2018, dated 2021).

pIC50: −log10 of the molar value. Where only a bound is given, the exact number is not on record here.

Sequence of USP7 (Q93009 whole entry): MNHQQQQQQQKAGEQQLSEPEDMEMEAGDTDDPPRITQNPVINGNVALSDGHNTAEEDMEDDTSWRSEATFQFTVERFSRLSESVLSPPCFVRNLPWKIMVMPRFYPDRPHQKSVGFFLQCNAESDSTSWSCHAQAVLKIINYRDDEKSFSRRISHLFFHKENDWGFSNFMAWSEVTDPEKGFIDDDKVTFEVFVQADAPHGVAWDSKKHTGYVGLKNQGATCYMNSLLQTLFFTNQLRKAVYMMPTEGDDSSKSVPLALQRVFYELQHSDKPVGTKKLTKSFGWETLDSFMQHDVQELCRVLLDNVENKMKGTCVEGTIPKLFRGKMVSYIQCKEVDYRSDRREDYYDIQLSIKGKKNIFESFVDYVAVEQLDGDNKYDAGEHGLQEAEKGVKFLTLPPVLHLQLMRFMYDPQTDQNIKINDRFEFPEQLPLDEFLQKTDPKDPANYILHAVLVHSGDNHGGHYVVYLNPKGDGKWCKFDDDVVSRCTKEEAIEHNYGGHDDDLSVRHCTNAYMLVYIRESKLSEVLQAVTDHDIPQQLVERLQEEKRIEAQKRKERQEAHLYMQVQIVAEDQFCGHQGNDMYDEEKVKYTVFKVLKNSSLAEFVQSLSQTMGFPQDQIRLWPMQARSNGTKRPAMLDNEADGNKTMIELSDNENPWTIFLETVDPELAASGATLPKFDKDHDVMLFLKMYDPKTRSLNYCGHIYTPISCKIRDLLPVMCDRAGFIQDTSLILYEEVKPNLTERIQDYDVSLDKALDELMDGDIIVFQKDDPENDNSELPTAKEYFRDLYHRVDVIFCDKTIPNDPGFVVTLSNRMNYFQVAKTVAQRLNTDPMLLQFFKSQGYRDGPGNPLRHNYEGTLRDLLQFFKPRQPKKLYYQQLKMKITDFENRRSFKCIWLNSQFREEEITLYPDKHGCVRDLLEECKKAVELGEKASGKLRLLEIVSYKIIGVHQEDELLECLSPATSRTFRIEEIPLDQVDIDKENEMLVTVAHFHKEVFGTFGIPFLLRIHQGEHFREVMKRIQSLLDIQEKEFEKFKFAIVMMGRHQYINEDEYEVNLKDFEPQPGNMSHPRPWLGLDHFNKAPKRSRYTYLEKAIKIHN

The test has as its target USP7 (Homo sapiens, UniProt Q93009). Briefly: USP7 inhibitory potency (IC50). Format: biochemical. The procedure: Activity for compounds described herein is provided in Table 2, wherein potency levels are provided as follows: (Potency: USP7 IC50: A<0.01 μM; B=0.01-0.1 μM; C=>0.1 μM.
In turn, `Cc1cc(Cl)cc(-c2ccnc3cc(CN4C(=O)C5CC5C4=O)sc23)c1CC1CNCCCO1` (stereo not shown) [Example 118, 3-((7-(2-((1,4-oxazepan-2-yl)methyl)-5-chloro-3-methylphenyl)thieno[3,2-b]pyridin-2-yl)methyl)-3-azabicyclo[3.1.0]hexane-2,4-dione] had a pIC50 of more than 8.00.

Regarding `CCC1CCC(=O)N1Cc1cc2ncnc(-c3cc(Cl)cc(C)c3C[C@@H]3CNCC(C)(C)O3)c2s1` (stereo partly drawn) [Example 232, 1-((4-(5-chloro-2-(((R)-6,6-dimethylmorpholin-2-yl)methyl)-3-methylphenyl)thieno[3,2-d]pyrimidin-6-yl)methyl)-5-ethylpyrrolidin-2-one], the negative-log IC50 (pIC50) was 7.00 to 8.00.

On to `Cc1cc(Cl)cc(-c2ccnc3cc(CN4C(=O)C5C(C4=O)C5(C)C)sc23)c1CC1CNCCO1` (stereo not shown) [Example 103, 3-((7-(5-chloro-3-methyl-2-(morpholin-2-ylmethyl)phenyl)thieno[3,2-b]pyridin-2-yl)methyl)-6,6-dimethyl-3-azabicyclo[3.1.0]hexane-2,4-dione], for which the pIC50 is more than 8.00.

As for `C[C@H]1CNC[C@H](C)N1Cc1c(Cl)cc(Cl)cc1-c1ccnc2cc(CN3C(=O)CCN(C)C3=O)sc12` [Example 49, 3-((7-(3,5-dichloro-2-(((2S,6S)-2,6-dimethylpiperazin-1-yl)methyl)phenyl)thieno[3,2-b]pyridin-2-yl)methyl)-1-methyldihydropyrimidine-2,4(1H,3H)-dione], the negative logarithm of the IC50 (pIC50) was more than 8.00.

With “3-((7-(3,5-dichloro-2-(((2S,6S)-2,6-dimethylpiperazin-1-yl)methyl)phenyl)thieno[3,2-b]pyridin-2-yl)methyl)-1-methylpyrimidine-2,4(1H,3H)-dione [Example 95]”, the negative logarithm of the IC50 (pIC50) is more than 8.00.

Molecule `Cc1ccc(CN2CCNC[C@@H]2C)c(-c2ncnc3cc(CN4C(=O)C5CC5C4=O)sc23)c1` (stereo partly drawn) [Example 62, 3-((4-(5-methyl-2-(((S)-2-methylpiperazin-1-yl)methyl)phenyl)thieno[3,2-d]pyrimidin-6-yl)methyl)-3-azabicyclo[3.1.0]hexane-2,4-dione] had a negative-log IC50 (pIC50) of less than 7.00.

Regarding `CC1(C)C2C(=O)N(Cc3cc4ncnc(-c5cc(Cl)cc(Cl)c5CC5CNCCO5)c4s3)C(=O)C21` (stereo not shown) [Example 226, 3-((4-(3,5-dichloro-2-(morpholin-2-ylmethyl)phenyl)thieno[3,2-d]pyrimidin-6-yl)methyl)-6,6-dimethyl-3-azabicyclo[3.1.0]hexane-2,4-dione], the negative-log IC50 (pIC50) is more than 8.00.

One may read the pIC50 as the negative decadic logarithm of the IC50, by convention in mol/L. Low values mean a high IC50, high ones a low IC50.
